Experimental data as given in paper PMC12127550 (The Journal of Biological Chemistry, 2025).
Entries after “also recorded” stand apart in the source; their conditions may differ. Where two headings read alike, the source gives them in different places.

Tests used:
[1] = test system: OATP1B1; conditions: cited from earlier work
[2] = test system: OATP1B1 H555F; conditions: H555 F variant; cited from earlier work
[3] = test system: OATP1B3 F555H; conditions: F555H mutation; cited from earlier work
[4] = test system: OATP1B1; assay type: cell-based, human; conditions: HEK293 over-expressing OATP1B1; substrate not specified at the place

For `C=CC1=C(C)/C(=C/c2[nH]c(Cc3[nH]c(/C=C4\NC(=O)C(C)=C4C=C)c(C)c3CCC(=O)O)c(CCC(=O)O)c2C)NC1=O` [bilirubin], the “inhibition of and transport by OATP1B1” value ([1]; no reference given) is listed as “is a natural transport substrate, but does not inhibit transport”.

In the case of “cholecystokinin-8: called an OATP1B1-specific substrate”, the “uptake by OATP1B1” value [2] is given as “abolished”.

For `CO[C@H]1/C=C/O[C@@]2(C)Oc3c(C)c(O)c4c(O)c(c(/C=N/N5CCN(C)CC5)c(O)c4c3C2=O)NC(=O)/C(C)=C\C=C\[C@H](C)[C@H](O)[C@@H](C)[C@@H](O)[C@@H](C)[C@H](OC(C)=O)[C@@H]1C` [rifampicin], the “inhibition of and transport by OATP1B1” value [1] is given as “both inhibits and is transported by OATP1B1”.

For `O=C(O[C@@H]1Cc2c(O)cc(O)cc2O[C@@H]1c1cc(O)c(O)c(O)c1)c1cc(O)c(O)c(O)c1` [EGCG, epigallocatechin gallate], the “EGCG transport by OATP1B3” value [3] is listed as “significantly reduced”.

B1: Sb5: synthetic nanobody (sybody) that binds to OATP1B1 in both its apo and cyclosporine A-bound forms (antibody, V domains shown)
VH: QVQLVESGGGLVQAGGSLRLSCAASGFPVNLSYMHWYRQAPGKEREWVAAISSWGWHTEYADSVKGRFTISRDNAKNTVYLQMNSLKPEDTAVYYCHVRVGRSYFGQGTQVSVSA
In the case of B1, the “inhibition of OATP1B1 substrate transport” value [4] is reported as “does not impair the ability of OATP1B1 to transport substrates; also recorded: did not inhibit substrate transport by OATP1B1”.
